In patent publication US20130338106A1, “COMPOUNDS INHIBITING LEUCINE-RICH REPEAT KINASE ENZYME ACTIVITY” (priority 2011, published 2013):

Assays:
Type in all cases: biochemical
[1] = molecular target: T1, SGK3 (Homo sapiens, UniProt Q96BR1); experiment: ProfilerPro Kinase Selectivity, SGK3; settings: tested at 10 uM, read-out: percent inhibition of the kinase activity
T1 construct: purchased Caliper LifeSciences
Description: (§1) Kinome selectivity profiling was performed using two example compounds according to the manufacturer's instructions using Caliper LifeSciences' ProfilerPro Kinase Selectivity Assay Kits. Compounds prepared in Examples 1 and 7 were tested at 10 uM and data were recorded using the Caliper LabChip® EZ Reader™. Each compounds' percent inhibition of the kinase activity measured in this manner is reported in the following lists.

[2] = molecular target: T2, IKKE (Homo sapiens, UniProt Q14164); experiment: ProfilerPro Kinase Selectivity, IKKE; settings: tested at 10 uM, read-out: percent inhibition of the kinase activity
T2 construct: purchased Caliper LifeSciences
Description: as §1

[3] = molecular target: T3, ALK (Homo sapiens, UniProt Q9UM73); experiment: ProfilerPro Kinase Selectivity, ALK; settings: tested at 10 uM, read-out: percent inhibition of the kinase activity
T3 construct: purchased Caliper LifeSciences
Description: as §1

[4] = molecular target: T4, MET (Homo sapiens, UniProt P08581); experiment: ProfilerPro Kinase Selectivity, MET; settings: tested at 10 uM, read-out: percent inhibition of the kinase activity
T4 construct: purchased Caliper LifeSciences
Description: as §1

[5] = molecular target: T5, AKT2 (Homo sapiens, UniProt P31751); experiment: ProfilerPro Kinase Selectivity, AKT2; settings: tested at 10 uM, read-out: percent inhibition of the kinase activity
T5 construct: purchased Caliper LifeSciences
Description: as §1

[6] = molecular target: T6, CDK2 (Homo sapiens, UniProt P24941); experiment: ProfilerPro Kinase Selectivity, CDK2; settings: tested at 10 uM, read-out: percent inhibition of the kinase activity
T6 construct: purchased Caliper LifeSciences
Description: as §1

[7] = molecular target: T7, PKD1 (Homo sapiens, UniProt Q15139); experiment: ProfilerPro Kinase Selectivity, PKD1; settings: tested at 10 uM, read-out: percent inhibition of the kinase activity
T7 construct: purchased Caliper LifeSciences
T7 sequence (Q15139 whole entry): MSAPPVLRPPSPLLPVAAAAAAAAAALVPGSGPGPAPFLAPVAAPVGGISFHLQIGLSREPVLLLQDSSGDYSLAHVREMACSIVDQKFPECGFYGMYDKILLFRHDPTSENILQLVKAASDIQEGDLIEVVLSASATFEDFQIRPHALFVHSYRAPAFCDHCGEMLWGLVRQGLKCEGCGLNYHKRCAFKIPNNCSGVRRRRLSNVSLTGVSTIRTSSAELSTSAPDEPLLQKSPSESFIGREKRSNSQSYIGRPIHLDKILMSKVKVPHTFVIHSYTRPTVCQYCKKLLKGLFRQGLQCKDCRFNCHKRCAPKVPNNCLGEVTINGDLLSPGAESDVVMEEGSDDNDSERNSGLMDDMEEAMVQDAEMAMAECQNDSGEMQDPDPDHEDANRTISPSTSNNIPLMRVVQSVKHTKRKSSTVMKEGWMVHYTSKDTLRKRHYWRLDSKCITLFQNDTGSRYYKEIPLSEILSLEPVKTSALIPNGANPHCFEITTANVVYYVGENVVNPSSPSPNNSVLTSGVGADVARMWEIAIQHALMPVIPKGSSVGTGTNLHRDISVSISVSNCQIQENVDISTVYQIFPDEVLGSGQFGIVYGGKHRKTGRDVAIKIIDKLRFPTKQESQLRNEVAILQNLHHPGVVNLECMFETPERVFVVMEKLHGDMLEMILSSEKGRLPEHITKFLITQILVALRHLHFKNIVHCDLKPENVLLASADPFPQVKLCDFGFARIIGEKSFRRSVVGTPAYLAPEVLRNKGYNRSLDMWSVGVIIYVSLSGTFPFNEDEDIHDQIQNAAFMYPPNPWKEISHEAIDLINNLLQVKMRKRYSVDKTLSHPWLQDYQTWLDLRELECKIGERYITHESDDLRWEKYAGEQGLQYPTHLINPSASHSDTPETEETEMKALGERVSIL
Description: as §1

[8] = molecular target: T8, LYN (Homo sapiens, UniProt P07948); experiment: ProfilerPro Kinase Selectivity, LYN; settings: tested at 10 uM, read-out: percent inhibition of the kinase activity
T8 construct: purchased Caliper LifeSciences
T8 sequence (P07948 whole entry, species assumed): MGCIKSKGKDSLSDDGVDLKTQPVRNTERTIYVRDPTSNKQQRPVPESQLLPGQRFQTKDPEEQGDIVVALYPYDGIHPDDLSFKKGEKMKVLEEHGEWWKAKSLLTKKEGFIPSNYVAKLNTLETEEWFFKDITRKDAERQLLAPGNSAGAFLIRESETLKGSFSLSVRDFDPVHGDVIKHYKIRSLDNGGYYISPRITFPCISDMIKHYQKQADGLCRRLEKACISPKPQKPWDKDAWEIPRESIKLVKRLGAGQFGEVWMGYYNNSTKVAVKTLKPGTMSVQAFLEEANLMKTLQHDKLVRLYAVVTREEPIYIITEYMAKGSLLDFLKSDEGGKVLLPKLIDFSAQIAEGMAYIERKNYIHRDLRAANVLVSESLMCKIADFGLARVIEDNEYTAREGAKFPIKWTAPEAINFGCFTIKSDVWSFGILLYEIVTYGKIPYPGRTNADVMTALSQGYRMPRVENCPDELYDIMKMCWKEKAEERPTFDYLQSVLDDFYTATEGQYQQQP
Description: as §1

[9] = molecular target: T9, CLK2 (Homo sapiens, UniProt P49760); experiment: ProfilerPro Kinase Selectivity, CLK2; settings: tested at 10 uM, read-out: percent inhibition of the kinase activity
T9 construct: purchased Caliper LifeSciences
Description: as §1

[10] = molecular target: T10, NEK1 (Homo sapiens, UniProt Q96PY6); experiment: ProfilerPro Kinase Selectivity, NEK1; settings: tested at 10 uM, read-out: percent inhibition of the kinase activity
T10 construct: purchased Caliper LifeSciences
Description: as §1

[11] = molecular target: T11, FLT3 (Homo sapiens, UniProt P36888); experiment: ProfilerPro Kinase Selectivity, FLT3; settings: tested at 10 uM, read-out: percent inhibition of the kinase activity
T11 construct: purchased Caliper LifeSciences
Description: as §1

[12] = molecular target: T12, EPHB3 (Homo sapiens, UniProt P54753); experiment: ProfilerPro Kinase Selectivity, EPHB3; settings: tested at 10 uM, read-out: percent inhibition of the kinase activity
T12 construct: purchased Caliper LifeSciences
Description: as §1

[13] = molecular target: T13, KIT T670I (Homo sapiens, UniProt P10721, T670I); experiment: ProfilerPro Kinase Selectivity, KIT T670I; settings: tested at 10 uM, read-out: percent inhibition of the kinase activity
T13 construct: purchased Caliper LifeSciences
T13 sequence (P10721 26-976 T670I): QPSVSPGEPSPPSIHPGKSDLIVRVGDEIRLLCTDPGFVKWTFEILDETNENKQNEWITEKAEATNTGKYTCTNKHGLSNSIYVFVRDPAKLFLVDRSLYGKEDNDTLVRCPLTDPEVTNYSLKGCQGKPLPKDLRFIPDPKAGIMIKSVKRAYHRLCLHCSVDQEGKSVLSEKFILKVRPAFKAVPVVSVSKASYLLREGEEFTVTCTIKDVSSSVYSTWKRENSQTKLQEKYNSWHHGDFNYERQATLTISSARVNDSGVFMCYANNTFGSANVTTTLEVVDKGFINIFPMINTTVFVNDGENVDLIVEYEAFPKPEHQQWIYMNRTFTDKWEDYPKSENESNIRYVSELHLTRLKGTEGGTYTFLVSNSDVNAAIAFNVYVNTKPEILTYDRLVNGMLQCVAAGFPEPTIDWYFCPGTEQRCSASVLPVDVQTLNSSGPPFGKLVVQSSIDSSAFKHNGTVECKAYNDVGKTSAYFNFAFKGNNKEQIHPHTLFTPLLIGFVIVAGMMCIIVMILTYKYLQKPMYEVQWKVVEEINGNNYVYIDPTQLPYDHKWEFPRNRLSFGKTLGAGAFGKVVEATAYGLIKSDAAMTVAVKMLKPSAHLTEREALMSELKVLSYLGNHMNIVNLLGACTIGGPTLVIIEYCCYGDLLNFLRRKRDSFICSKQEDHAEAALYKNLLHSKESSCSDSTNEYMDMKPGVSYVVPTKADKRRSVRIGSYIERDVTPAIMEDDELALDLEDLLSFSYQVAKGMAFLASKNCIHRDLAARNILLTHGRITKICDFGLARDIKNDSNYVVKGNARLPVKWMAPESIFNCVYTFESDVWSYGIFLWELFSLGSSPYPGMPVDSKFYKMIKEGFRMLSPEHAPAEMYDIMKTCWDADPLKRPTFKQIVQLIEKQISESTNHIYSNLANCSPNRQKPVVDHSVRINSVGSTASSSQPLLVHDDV
Description: as §1

[14] = molecular target: T14, KIT (Homo sapiens, UniProt P10721); experiment: ProfilerPro Kinase Selectivity, KIT; settings: tested at 10 uM, read-out: percent inhibition of the kinase activity
T14 construct: purchased Caliper LifeSciences
T14 sequence (P10721 26-976, species assumed): as the sequence (P10721 26-976 T670I) above, with I645T counted along it
Description: as §1

[15] = molecular target: T15, FER (Homo sapiens, UniProt P16591); experiment: ProfilerPro Kinase Selectivity, FER; settings: tested at 10 uM, read-out: percent inhibition of the kinase activity
T15 construct: purchased Caliper LifeSciences
Description: as §1

[16] = molecular target: T16, LRRK2 G2019S mutant kinase (Homo sapiens, UniProt Q5S007, G2019S); experiment: LRRK2 G2019S LanthaScreen TR-FRET kinase assay; settings: LRRK2 G2019S GST-tagged protein, 100 μM ATP, LRRKtide substrate; read-out: IC50 (potency)
T16 construct: GST; purchased Invitrogen PV4882
Method in brief: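 GST-tagged enzyme with 75 nM fluorescein-ERM (LRRKtide) substrate, 100 μM ATP, 2 mM DTT, 1% DMSO final; 1 h at room temperature. Stopped with EDTA and Tb-anti-pERM antibody, 30 min, then TR-FRET read (ex 340, em 520/495 nm); IC50 and maximal inhibition derived.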

[17] = molecular target: T17, CSNK1A1 (Homo sapiens, UniProt P48729); experiment: ProfilerPro Kinase Selectivity, CSNK1A1; settings: tested at 10 uM, read-out: percent inhibition of the kinase activity
T17 construct: purchased Caliper LifeSciences
Description: as §1

[18] = molecular target: T18, DCAMKL2 (Homo sapiens, UniProt Q8N568); experiment: ProfilerPro Kinase Selectivity, DCAMKL2; settings: tested at 10 uM, read-out: percent inhibition of the kinase activity
T18 construct: purchased Caliper LifeSciences
T18 sequence (Q8N568 whole entry, species assumed): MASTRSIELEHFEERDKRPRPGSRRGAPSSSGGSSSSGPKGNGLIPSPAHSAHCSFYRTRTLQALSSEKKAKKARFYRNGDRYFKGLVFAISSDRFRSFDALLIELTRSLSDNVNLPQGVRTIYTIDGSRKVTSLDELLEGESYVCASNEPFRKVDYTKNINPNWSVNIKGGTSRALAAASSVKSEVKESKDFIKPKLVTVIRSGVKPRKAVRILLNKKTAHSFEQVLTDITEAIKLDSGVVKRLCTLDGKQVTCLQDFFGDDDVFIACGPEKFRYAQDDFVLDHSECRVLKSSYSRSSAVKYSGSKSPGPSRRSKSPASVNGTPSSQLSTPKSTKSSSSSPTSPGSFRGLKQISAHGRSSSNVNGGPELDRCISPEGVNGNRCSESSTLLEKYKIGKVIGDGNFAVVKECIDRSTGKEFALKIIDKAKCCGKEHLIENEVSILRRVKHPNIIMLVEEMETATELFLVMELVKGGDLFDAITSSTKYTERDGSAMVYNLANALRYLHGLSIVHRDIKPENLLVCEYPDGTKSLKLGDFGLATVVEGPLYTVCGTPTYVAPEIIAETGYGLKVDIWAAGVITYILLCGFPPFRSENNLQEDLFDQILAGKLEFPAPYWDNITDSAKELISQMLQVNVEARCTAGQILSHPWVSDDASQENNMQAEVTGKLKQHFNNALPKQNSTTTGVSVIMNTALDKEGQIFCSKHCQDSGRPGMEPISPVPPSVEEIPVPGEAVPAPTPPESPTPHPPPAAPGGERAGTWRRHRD
Description: as §1

[19] = molecular target: T19, MSK1 (Homo sapiens, UniProt O75582); experiment: ProfilerPro Kinase Selectivity, MSK1; settings: tested at 10 uM, read-out: percent inhibition of the kinase activity
T19 construct: purchased Caliper LifeSciences
T19 sequence (O75582 whole entry, species assumed): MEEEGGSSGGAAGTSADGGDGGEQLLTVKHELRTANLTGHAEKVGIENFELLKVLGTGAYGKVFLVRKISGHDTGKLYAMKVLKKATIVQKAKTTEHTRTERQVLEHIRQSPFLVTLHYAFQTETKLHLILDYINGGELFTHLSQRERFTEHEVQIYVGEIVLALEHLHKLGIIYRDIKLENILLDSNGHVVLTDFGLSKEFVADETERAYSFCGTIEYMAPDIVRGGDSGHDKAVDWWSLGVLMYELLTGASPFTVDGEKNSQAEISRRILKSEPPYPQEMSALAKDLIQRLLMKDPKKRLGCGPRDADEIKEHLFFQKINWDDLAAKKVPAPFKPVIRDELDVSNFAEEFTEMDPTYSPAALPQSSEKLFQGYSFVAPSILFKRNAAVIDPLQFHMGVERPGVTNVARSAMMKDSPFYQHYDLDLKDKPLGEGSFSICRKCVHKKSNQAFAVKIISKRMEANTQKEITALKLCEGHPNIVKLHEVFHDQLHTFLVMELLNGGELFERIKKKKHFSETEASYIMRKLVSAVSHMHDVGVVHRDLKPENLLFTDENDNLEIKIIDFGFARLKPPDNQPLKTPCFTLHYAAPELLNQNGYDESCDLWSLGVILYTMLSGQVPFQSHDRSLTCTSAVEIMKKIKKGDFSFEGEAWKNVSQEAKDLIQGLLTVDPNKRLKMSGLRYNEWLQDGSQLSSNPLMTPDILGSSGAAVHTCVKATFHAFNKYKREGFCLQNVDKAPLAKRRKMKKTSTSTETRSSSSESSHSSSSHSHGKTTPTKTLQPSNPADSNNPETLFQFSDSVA
Description: as §1

[20] = molecular target: T20, MAPKAPK5 (Homo sapiens, UniProt Q8IW41); experiment: ProfilerPro Kinase Selectivity, MAPKAPK5; settings: tested at 10 uM, read-out: percent inhibition of the kinase activity
T20 construct: purchased Caliper LifeSciences
Description: as §1

[21] = molecular target: T21, FGFR2 (Homo sapiens, UniProt P21802); experiment: ProfilerPro Kinase Selectivity, FGFR2; settings: tested at 10 uM, read-out: percent inhibition of the kinase activity
T21 construct: purchased Caliper LifeSciences
Description: as §1

[22] = molecular target: T22, IGF1R (Homo sapiens, UniProt P08069); experiment: ProfilerPro Kinase Selectivity, IGF1R; settings: tested at 10 uM, read-out: percent inhibition of the kinase activity
T22 construct: purchased Caliper LifeSciences
Description: as §1

[23] = molecular target: T23, CDK3 (Homo sapiens, UniProt Q00526); experiment: ProfilerPro Kinase Selectivity, CDK3; settings: tested at 10 uM, read-out: percent inhibition of the kinase activity
T23 construct: purchased Caliper LifeSciences
Description: as §1

[24] = molecular target: T24, EPHA5 (Homo sapiens, UniProt P54756); experiment: ProfilerPro Kinase Selectivity, EPHA5; settings: tested at 10 uM, read-out: percent inhibition of the kinase activity
T24 construct: purchased Caliper LifeSciences
Description: as §1

[25] = molecular target: T25, P70S6K (Homo sapiens, UniProt P23443); experiment: ProfilerPro Kinase Selectivity, P70S6K; settings: tested at 10 uM, read-out: percent inhibition of the kinase activity
T25 construct: purchased Caliper LifeSciences
Description: as §1

[26] = molecular target: T26, P38A (Homo sapiens, UniProt Q16539); experiment: ProfilerPro Kinase Selectivity, P38A; settings: tested at 10 uM, read-out: percent inhibition of the kinase activity
T26 construct: purchased Caliper LifeSciences
T26 sequence (Q16539 2-360 limits assumed): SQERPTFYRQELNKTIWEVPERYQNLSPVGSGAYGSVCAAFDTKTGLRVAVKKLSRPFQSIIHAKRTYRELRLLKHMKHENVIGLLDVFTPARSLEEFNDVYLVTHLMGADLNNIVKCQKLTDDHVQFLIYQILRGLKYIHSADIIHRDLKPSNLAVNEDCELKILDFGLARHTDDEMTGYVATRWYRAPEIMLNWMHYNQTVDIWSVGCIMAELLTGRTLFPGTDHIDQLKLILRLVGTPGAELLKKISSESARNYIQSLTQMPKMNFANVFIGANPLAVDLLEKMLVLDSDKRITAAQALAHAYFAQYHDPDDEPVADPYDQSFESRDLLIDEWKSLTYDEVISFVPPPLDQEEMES
Description: as §1

[27] = molecular target: T27, DYRK3 (Homo sapiens, UniProt O43781); experiment: ProfilerPro Kinase Selectivity, DYRK3; settings: tested at 10 uM, read-out: percent inhibition of the kinase activity
T27 construct: purchased Caliper LifeSciences
Description: as §1

[28] = molecular target: T28, DYRK4 (Homo sapiens, UniProt Q9NR20); experiment: ProfilerPro Kinase Selectivity, DYRK4; settings: tested at 10 uM, read-out: percent inhibition of the kinase activity
T28 construct: purchased Caliper LifeSciences
Description: as §1

[29] = molecular target: T29, PKG1B (Homo sapiens, UniProt Q13976); experiment: ProfilerPro Kinase Selectivity, PKG1B; settings: tested at 10 uM, read-out: percent inhibition of the kinase activity
T29 construct: purchased Caliper LifeSciences
Description: as §1

T1 sequence (Q96BR1 whole entry, species assumed): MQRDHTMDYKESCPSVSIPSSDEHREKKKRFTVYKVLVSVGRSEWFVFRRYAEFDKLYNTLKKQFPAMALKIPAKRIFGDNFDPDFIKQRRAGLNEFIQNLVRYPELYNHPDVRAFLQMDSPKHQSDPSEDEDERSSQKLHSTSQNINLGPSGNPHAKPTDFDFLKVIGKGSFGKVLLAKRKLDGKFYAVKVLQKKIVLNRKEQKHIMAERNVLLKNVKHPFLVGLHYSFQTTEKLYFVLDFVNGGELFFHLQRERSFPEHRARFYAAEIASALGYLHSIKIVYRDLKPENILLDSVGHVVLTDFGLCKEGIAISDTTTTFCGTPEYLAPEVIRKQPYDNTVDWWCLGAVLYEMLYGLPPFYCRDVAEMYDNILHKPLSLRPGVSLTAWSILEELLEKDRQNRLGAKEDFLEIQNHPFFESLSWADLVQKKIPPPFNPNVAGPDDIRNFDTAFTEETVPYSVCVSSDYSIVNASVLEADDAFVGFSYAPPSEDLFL

Compound | inhibition at 10 µM [1] | inhibition at 10 µM [2] | inhibition at 10 µM [3] | inhibition at 10 µM [4] | inhibition at 10 µM [5] | inhibition at 10 µM [6] | inhibition at 10 µM [7] | inhibition at 10 µM [8] | inhibition at 10 µM [9] | inhibition at 10 µM [10] | inhibition at 10 µM [11] | inhibition at 10 µM [12] | inhibition at 10 µM [13] | inhibition at 10 µM [14] | inhibition at 10 µM [15] | IC50 [16] | inhibition at 10 µM [17] | inhibition at 10 µM [18] | inhibition at 10 µM [19] | inhibition at 10 µM [20] | further results
CSc1sc(-c2cc[nH]n2)c2c1C(=O)CCC2 [Example 1, 3-(Methylsulfanyl)-1-(1H-pyrazol-3-yl)-6,7-dihydro-2-benzothiophen-4(5H)-one] | 4.6% | -1.5% | 23.8% | 8.2% | -6.8% | 18.4% | 5.5% | 10.2% | 31.3% | 9.1% | 11.4% | -1% | 10.6% | 19.2% | 11.6% | 0.19 µM | 12.4% | -0.8% | 5.1% | 4.4% | inhibition at 10 µM [21]: 4.9%; inhibition at 10 µM [22]: 5.4%; inhibition at 10 µM [23]: 21.4%; inhibition at 10 µM [24]: -3.1%; inhibition at 10 µM [25]: 5.7%; inhibition at 10 µM [26]: -2.3%; inhibition at 10 µM [27]: 11.7%; inhibition at 10 µM [28]: -1.1%; inhibition at 10 µM [29]: 10.8%
CC1(C)CC(=O)c2c(SC3CCCC3)sc(-c3cc[nH]n3)c2C1 [Example 7, 3-(Cyclopentylsulfanyl)-6,6-dimethyl-1-(1H-pyrazol-3-yl)-6,7-dihydro-2-benzothiophen-4(5H)-one] | 4.6% | 1.3% | 44.7% | -0.9% | -6.8% | 2.1% | -10.6% | 4% | 1.3% | 1.4% | 4.6% | 2.2% | 3% | -7.3% | -0.2% | 0.093 µM | 2% | -4.2% | -2.8% | 1.9% | inhibition at 10 µM [21]: 2.6%; inhibition at 10 µM [22]: -3.7%; inhibition at 10 µM [23]: 2.5%; inhibition at 10 µM [24]: 1.5%; inhibition at 10 µM [25]: -4.8%; inhibition at 10 µM [26]: 0.6%; inhibition at 10 µM [27]: -8.5%; inhibition at 10 µM [28]: 0.4%; inhibition at 10 µM [29]: -0.6%
